According to ChEMBL document CHEMBL3885861, “Open TG-GATES”:

Species: Rattus norvegicus
Experiment: Open TG-GATES - Regimen: Single
Format: toxicity, organism-based, Sprague-Dawley
Design: regimen Single, gender Male, age 6 weeks
Conditions: in vivo, po, 300 mg/kg, route gavage, dose level High; for APTT / Bas / Eos / Fbg / Hb / Ht / Lym / MCH / MCHC / MCV / Mono / Neu / PT / Plat / RBC / Ret / WBC: tissue Blood; for KIDNEY_L / KIDNEY_R / KIDNEY_TOTAL: tissue Kidney; for LIVER: tissue Liver; for A/G / ALP / ALT / AST / BUN / CRE / Ca / Cl / DBIL / GLC / IP / K / LDH / Na / PL / RALB / TBIL / TC / TG / TP / gamma-GTP: tissue Plasma

Brc1ccccc1 [BROMOBENZENE]
TERMINAL_BW (3 h): 190.3 g
APTT (3 h): 15.8 s
Bas (3 h): 0%
Eos (3 h): 0.8%
Fbg (3 h): 289.8 mg/dL
Hb (3 h): 14.1 g/dL
Ht (3 h): 41.4%
Lym (3 h): 76.6%
MCH (3 h): 21.7 pg
MCHC (3 h): 33.9%
MCV (3 h): 64 fL
Mono (3 h): 3.2%
Neu (3 h): 19.2%
PT (3 h): 12 s
Plat (3 h): 115.3 x10_4/uL
RBC (3 h): 648.4 x10_4/ul
Ret (3 h): 9.4%
WBC (3 h): 67.3 x10_2/uL
KIDNEY_L (3 h): 0.8 g
KIDNEY_R (3 h): 0.8 g
KIDNEY_TOTAL (3 h): 1.7 g
LIVER (3 h): 7.6 g
A/G (3 h): 0.9
ALP (3 h): 1696 IU/L
ALT (3 h): 48.2 IU/L
AST (3 h): 81.6 IU/L
BUN (3 h): 8 mg/dL
CRE (3 h): 0.1 mg/dL
Ca (3 h): 11 mg/dL
Cl (3 h): 105.2 meq/L
DBIL (3 h): 0.01 mg/dL
GLC (3 h): 191.6 mg/dL
IP (3 h): 10.9 mg/dL
K (3 h): 3.6 meq/L
LDH (3 h): 78.2 IU/L
Na (3 h): 141.6 meq/L
PL (3 h): 152.2 mg/dL
RALB (3 h): 2.7 g/dL
TBIL (3 h): 0.044 mg/dL
TC (3 h): 82.8 mg/dL
TG (3 h): 55.8 mg/dL
TP (3 h): 5.7 g/dL
gamma-GTP (3 h): 1.4 IU/L
TERMINAL_BW (6 h): 192 g
APTT (6 h): 15.8 s
Bas (6 h): 0%
Eos (6 h): 0.6%
Fbg (6 h): 293 mg/dL
Hb (6 h): 13.9 g/dL
Ht (6 h): 41.8%
Lym (6 h): 73%
MCH (6 h): 21 pg
MCHC (6 h): 33.3%
MCV (6 h): 63 fL
Mono (6 h): 2.2%
Neu (6 h): 23.8%
PT (6 h): 12.3 s
Plat (6 h): 107.3 x10_4/uL
RBC (6 h): 663.8 x10_4/ul
Ret (6 h): 9.1%
WBC (6 h): 56.8 x10_2/uL
KIDNEY_L (6 h): 0.8 g
KIDNEY_R (6 h): 0.8 g
KIDNEY_TOTAL (6 h): 1.6 g
LIVER (6 h): 7.4 g
A/G (6 h): 0.9
ALP (6 h): 1585.6 IU/L
ALT (6 h): 40.6 IU/L
AST (6 h): 72.2 IU/L
BUN (6 h): 9.2 mg/dL
CRE (6 h): 0.1 mg/dL
Ca (6 h): 10.9 mg/dL
Cl (6 h): 103.4 meq/L
DBIL (6 h): 0.008 mg/dL
GLC (6 h): 207.6 mg/dL
IP (6 h): 11.1 mg/dL
K (6 h): 3.8 meq/L
LDH (6 h): 80 IU/L
Na (6 h): 140.6 meq/L
PL (6 h): 156.8 mg/dL
RALB (6 h): 2.7 g/dL
TBIL (6 h): 0.04 mg/dL
TC (6 h): 93.2 mg/dL
TG (6 h): 29.4 mg/dL
TP (6 h): 5.7 g/dL
gamma-GTP (6 h): 1.4 IU/L
TERMINAL_BW (9 h): 190.5 g
APTT (9 h): 16.2 s
Bas (9 h): 0%
Eos (9 h): 0.6%
Fbg (9 h): 274.4 mg/dL
Hb (9 h): 14.2 g/dL
Ht (9 h): 41.9%
Lym (9 h): 79%
MCH (9 h): 21.5 pg
MCHC (9 h): 33.9%
MCV (9 h): 63.4 fL
Mono (9 h): 2.4%
Neu (9 h): 17.6%
PT (9 h): 12.2 s
Plat (9 h): 111.6 x10_4/uL
RBC (9 h): 660.8 x10_4/ul
Ret (9 h): 8.9%
WBC (9 h): 67.7 x10_2/uL
KIDNEY_L (9 h): 0.8 g
KIDNEY_R (9 h): 0.8 g
KIDNEY_TOTAL (9 h): 1.6 g
LIVER (9 h): 6.5 g
A/G (9 h): 0.9
ALP (9 h): 1518.8 IU/L
ALT (9 h): 40.8 IU/L
AST (9 h): 75.6 IU/L
BUN (9 h): 12 mg/dL
CRE (9 h): 0.2 mg/dL
Ca (9 h): 10.6 mg/dL
Cl (9 h): 103.6 meq/L
DBIL (9 h): 0.008 mg/dL
GLC (9 h): 184.8 mg/dL
IP (9 h): 11 mg/dL
K (9 h): 3.7 meq/L
LDH (9 h): 95.6 IU/L
Na (9 h): 140.6 meq/L
PL (9 h): 141.4 mg/dL
RALB (9 h): 2.6 g/dL
TBIL (9 h): 0.052 mg/dL
TC (9 h): 86.6 mg/dL
TG (9 h): 23.8 mg/dL
TP (9 h): 5.6 g/dL
gamma-GTP (9 h): 1.8 IU/L
TERMINAL_BW (24 h): 185.8 g
APTT (24 h): 18.7 s
Bas (24 h): 0%
Eos (24 h): 0.4%
Fbg (24 h): 204.8 mg/dL
Hb (24 h): 13.9 g/dL
Ht (24 h): 40.9%
Lym (24 h): 71.6%
MCH (24 h): 21.5 pg
MCHC (24 h): 34%
MCV (24 h): 63.2 fL
Mono (24 h): 1.8%
Neu (24 h): 25.8%
PT (24 h): 15.8 s
Plat (24 h): 111.5 x10_4/uL
RBC (24 h): 647.2 x10_4/ul
Ret (24 h): 7.3%
WBC (24 h): 73.2 x10_2/uL
KIDNEY_L (24 h): 0.8 g
KIDNEY_R (24 h): 0.8 g
KIDNEY_TOTAL (24 h): 1.7 g
LIVER (24 h): 8.6 g
A/G (24 h): 0.9
ALP (24 h): 2477 IU/L
ALT (24 h): 113.6 IU/L
AST (24 h): 481 IU/L
BUN (24 h): 14.6 mg/dL
CRE (24 h): 0.2 mg/dL
Ca (24 h): 10.2 mg/dL
Cl (24 h): 106.8 meq/L
DBIL (24 h): 0.024 mg/dL
GLC (24 h): 166.8 mg/dL
IP (24 h): 8.3 mg/dL
K (24 h): 4.1 meq/L
LDH (24 h): 784.6 IU/L
Na (24 h): 142 meq/L
PL (24 h): 130.8 mg/dL
RALB (24 h): 2.6 g/dL
TBIL (24 h): 0.074 mg/dL
TC (24 h): 85.6 mg/dL
TG (24 h): 67.4 mg/dL
TP (24 h): 5.5 g/dL
gamma-GTP (24 h): 1.4 IU/L
